The target in test [1] is T1, Gag-Pol polyprotein [489-587] (Human immunodeficiency virus 1, UniProt P04585).
T1 construct: 489-587

Test [2] has as its target T2, Dimer of Gag-Pol polyprotein [489-587] (Human immunodeficiency virus 1, UniProt P12497).
T2 construct: 489-587
The test is described as follows: Protease Inhibition Assay. How it is done:
(§1) Sensitivity of HIV-1 protease activity to protease inhibitors was determined by a peptide substrate cleavage assay. Protease products were analyzed on a reverse-phase high-pressure liquid chromatograph.

Test [3] deals with T1, Gag-Pol polyprotein [489-587]. The test is described as follows: Protease Inhibition Assay. As for the experimental part:
as §1

This note sets out measurements from BindingDB's records for doi:10.1021/jm990281p (Parke-Davis Pharmaceutical Research, 2000).

For the molecule `Cc1cc(SC2C(=O)C[C@@](CCc3ccc(O)cc3)(C(C)C)OC2=O)c(C(C)(C)C)cc1N` (stereo partly drawn) [(6S)-3-[(4-amino-2-tert-butyl-5-methylphenyl)sulfanyl]-4-hydroxy-6-[2-(4-hydroxyphenyl)ethyl]-6-(propan-2-yl)-5,6-dihydro-2H-pyran-2-one], the results for the Ki in test [1] and in test [2] were 13 nM and 0.07 nM, respectively.
Take `Cc1cc(SC2C(=O)CC(CCc3ccc(O)cc3)(C(C)C)OC2=O)c(C(C)(C)C)cc1NS(=O)(=O)c1cccc(C#N)c1` (centres undefined): the Ki in test [1] worked out at 0.21 nM; in test [2] (pH 6.2, 37 °C) it was 0.21 nM.
Turning to `Cc1cc(SC2C(=O)C[C@@](CCc3ccccc3)(C(C)C)OC2=O)c(C(C)(C)C)cc1NS(=O)(=O)c1ccc(C(F)(F)F)cn1` (stereo partly drawn) [N-(5-tert-butyl-4-{[(6S)-4-hydroxy-2-oxo-6-(2-phenylethyl)-6-(propan-2-yl)-5,6-dihydro-2H-pyran-3-yl]sulfanyl}-2-methylphenyl)-5-(trifluoromethyl)pyridine-2-sulfonamide], the Ki in test [1] was determined as 6.4 nM; in test [2], 0.31 nM.
As for `Cc1cc(SC2C(=O)C[C@@](CCc3ccccc3)(C(C)C)OC2=O)c(C(C)(C)C)cc1NS(=O)(=O)c1ccc(C#N)cc1` (stereo partly drawn) [N-(5-tert-butyl-4-{[(6S)-4-hydroxy-2-oxo-6-(2-phenylethyl)-6-(propan-2-yl)-5,6-dihydro-2H-pyran-3-yl]sulfanyl}-2-methylphenyl)-4-cyanobenzene-1-sulfonamide], the Ki in test [1] and in test [2] was 0.2 nM throughout. The molecule further showed a half-maximal inhibitory concentration (IC50) in test [3] of 9.1 nM.
For `Cc1cc(SC2C(=O)CC(CCc3ccccc3)(C(C)C)OC2=O)c(C(C)(C)C)cc1NS(C)(=O)=O` (centres undefined), the Ki is 0.83 nM in test [1] and 0.83 nM in test [2] (pH 6.2, 37 °C).
For `Cc1cc(SC2C(=O)CC(CCc3ccccc3)(C(C)C)OC2=O)c(C(C)(C)C)cc1NS(=O)(=O)c1cccc(C#N)c1` (centres undefined) [N-(5-tert-butyl-4-{[4-hydroxy-2-oxo-6-(2-phenylethyl)-6-(propan-2-yl)-5,6-dihydro-2H-pyran-3-yl]sulfanyl}-2-methylphenyl)-3-cyanobenzene-1-sulfonamide], the Ki in test [1] is 1.4 nM; in test [2] (pH 6.2, 37 °C) it was 1.4 nM.
In the case of `Cc1cc(SC2C(=O)C[C@@](CCc3ccc(O)cc3)(C(C)C)OC2=O)c(C(C)(C)C)cc1NS(=O)(=O)c1ccc(C(F)(F)F)cn1` (stereo partly drawn) [N-(5-tert-butyl-4-{[(6S)-4-hydroxy-6-[2-(4-hydroxyphenyl)ethyl]-2-oxo-6-(propan-2-yl)-5,6-dihydro-2H-pyran-3-yl]sulfanyl}-2-methylphenyl)-5-(trifluoromethyl)pyridine-2-sulfonamide], the Ki in test [1] and in test [2] was 0.39 nM each time.
As for `Cc1cc(SC2C(=O)C[C@@](CCc3ccc(O)cc3)(C(C)C)OC2=O)c(C(C)(C)C)cc1OS(C)(=O)=O` (some centres undefined), the Ki in test [1] and in test [2] was 0.03 nM throughout. Also, in test [3], the IC50 was determined as 2.2 nM.
With `Cc1cc(SC2C(=O)CC(CCc3ccccc3)(C(C)C)OC2=O)c(C(C)(C)C)cc1OS(=O)(=O)c1ccc(C#N)cc1` (centres undefined), the Ki in test [1] and in test [2] was 0.7 nM each time.
With `Cc1cc(SC2C(=O)CC(CCc3ccccc3)(C(C)C)OC2=O)c(C(C)(C)C)cc1NS(=O)(=O)c1ccc(C(F)(F)F)cc1` (centres undefined) [N-(5-tert-butyl-4-{[4-hydroxy-2-oxo-6-(2-phenylethyl)-6-(propan-2-yl)-5,6-dihydro-2H-pyran-3-yl]sulfanyl}-2-methylphenyl)-4-(trifluoromethyl)benzene-1-sulfonamide], the Ki turned out to be 27 nM in test [1] and 27 nM in test [2] (pH 6.2, 37 °C).
As for `Cc1cc(SC2C(=O)CC(CCc3ccccc3)(C(C)C)OC2=O)c(C(C)(C)C)cc1NS(=O)(=O)c1ccccn1` (centres undefined) [N-(5-tert-butyl-4-{[4-hydroxy-2-oxo-6-(2-phenylethyl)-6-(propan-2-yl)-5,6-dihydro-2H-pyran-3-yl]sulfanyl}-2-methylphenyl)pyridine-2-sulfonamide], the IC50 in test [3] and in test [2] was 3 nM each time.
For `Cc1cc(SC2C(=O)CC(C)(CCc3ccc(O)cc3)OC2=O)c(C(C)(C)C)cc1NS(=O)(=O)c1ccccc1` (centres undefined) [N-[5-tert-butyl-4-({4-hydroxy-6-[2-(4-hydroxyphenyl)ethyl]-6-methyl-2-oxo-5,6-dihydro-2H-pyran-3-yl}sulfanyl)-2-methylphenyl]benzenesulfonamide], the 50% inhibitory concentration (IC50) was 1.5 nM in test [3] and 1.5 nM in test [2] (pH 6.2, 37 °C).
Turning to `Cc1cc(SC2C(=O)CC(CCc3ccc(O)cc3)(C3CCCC3)OC2=O)c(C(C)(C)C)cc1NS(=O)(=O)c1ccccc1` (centres undefined) [N-[5-tert-butyl-4-({6-cyclopentyl-4-hydroxy-6-[2-(4-hydroxyphenyl)ethyl]-2-oxo-5,6-dihydro-2H-pyran-3-yl}sulfanyl)-2-methylphenyl]benzenesulfonamide], the IC50 was 8.6 nM in test [3] and 8.6 nM in test [2] (pH 6.2, 37 °C).
For the molecule `Cc1cc(SC2C(=O)CC(C)(CCc3ccc(O)cc3)OC2=O)c(C(C)(C)C)cc1N` (centres undefined) [3-[(4-amino-2-tert-butyl-5-methylphenyl)sulfanyl]-4-hydroxy-6-[2-(4-hydroxyphenyl)ethyl]-6-methyl-5,6-dihydro-2H-pyran-2-one], the IC50 in test [3] was 13 nM; in test [2] (pH 6.2, 37 °C) it was 13 nM.
Regarding `Cc1cc(SC2C(=O)CC(CCc3ccc(O)cc3)(C(C)C)OC2=O)c(C(C)(C)C)cc1NS(=O)(=O)c1ccccc1` (centres undefined) [N-[5-tert-butyl-4-({4-hydroxy-6-[2-(4-hydroxyphenyl)ethyl]-2-oxo-6-(propan-2-yl)-5,6-dihydro-2H-pyran-3-yl}sulfanyl)-2-methylphenyl]benzenesulfonamide], the Ki was 0.53 nM in test [1] and 0.53 nM in test [2] (pH 6.2, 37 °C). The IC50 in test [3] worked out at 1.8 nM; in test [2] (pH 6.2, 37 °C), 1.8 nM.
Regarding `Cc1cc(SC2C(=O)CC(CCc3ccc(O)cc3)(C3CC3)OC2=O)c(C(C)(C)C)cc1NS(=O)(=O)c1ccccc1` (centres undefined) [N-[5-tert-butyl-4-({6-cyclopropyl-4-hydroxy-6-[2-(4-hydroxyphenyl)ethyl]-2-oxo-5,6-dihydro-2H-pyran-3-yl}sulfanyl)-2-methylphenyl]benzenesulfonamide], the IC50 in test [3] turned out to be 3.6 nM; in test [2] (pH 6.2, 37 °C), 3.6 nM.
On to `Cc1cc(SC2C(=O)CC(CCc3ccc(O)cc3)(C(C)C)OC2=O)c(C(C)(C)C)cc1OS(=O)(=O)c1ccccc1` (centres undefined) [5-tert-butyl-4-({4-hydroxy-6-[2-(4-hydroxyphenyl)ethyl]-2-oxo-6-(propan-2-yl)-5,6-dihydro-2H-pyran-3-yl}sulfanyl)-2-methylphenyl benzenesulfonate], for which the IC50 in test [3] and in test [2] was 10.4 nM throughout.
For `Cc1cc(SC2C(=O)CC(CCc3ccc(O)cc3)(C(C)C)OC2=O)c(C(C)(C)C)cc1OS(=O)(=O)c1ccccn1` (centres undefined) [5-tert-butyl-4-({4-hydroxy-6-[2-(4-hydroxyphenyl)ethyl]-2-oxo-6-(propan-2-yl)-5,6-dihydro-2H-pyran-3-yl}sulfanyl)-2-methylphenyl pyridine-2-sulfonate], the IC50 in test [3] and in test [2] was 5 nM throughout.
For `Cc1cc(SC2C(=O)CC(CCc3ccc(O)cc3)(C(C)C)OC2=O)c(C(C)(C)C)cc1OS(=O)(=O)c1ccc(F)cc1` (centres undefined), the half-inhibitory concentration (IC50) in test [3] and in test [2] was 9.6 nM in each case.
With `Cc1cc(SC2C(=O)CC(CCc3ccccc3)(C(C)C)OC2=O)c(C(C)(C)C)cc1O` (centres undefined), the Ki in test [1] was determined as 1.1 nM.
`Cc1cc(SC2C(=O)CC(CCc3ccc(O)cc3)(C(C)C)OC2=O)c(C(C)(C)C)cc1NS(=O)(=O)c1ccc(C#N)cc1` (centres undefined) [N-[5-tert-butyl-4-({4-hydroxy-6-[2-(4-hydroxyphenyl)ethyl]-2-oxo-6-(propan-2-yl)-5,6-dihydro-2H-pyran-3-yl}sulfanyl)-2-methylphenyl]-4-cyanobenzene-1-sulfonamide]: the Ki amounted to 0.41 nM in test [1] and 0.41 nM in test [2] (pH 6.2, 37 °C). The IC50 in test [3] came to 2.2 nM; in test [2] (pH 6.2, 37 °C) it was 2.2 nM.
Turning to `Cc1cc(SC2C(=O)CC(CCc3ccccc3)(C(C)C)OC2=O)c(C(C)(C)C)cc1N` (centres undefined), the IC50 in test [3] was 3.6 nM; in test [2] (pH 6.2, 37 °C), 3.6 nM.
With `CCNS(=O)(=O)Nc1cc(C(C)(C)C)c(SC2C(=O)CC(CCc3ccccc3)(C(C)C)OC2=O)cc1C` (centres undefined), the IC50 in test [3] and in test [2] was 3.3 nM throughout.
With `Cc1cc(SC2C(=O)CC(C)(CCc3ccc(O)cc3)OC2=O)c(C(C)(C)C)cc1NS(=O)(=O)c1ccc(C(F)(F)F)cc1` (centres undefined) [N-[5-tert-butyl-4-({4-hydroxy-6-[2-(4-hydroxyphenyl)ethyl]-6-methyl-2-oxo-5,6-dihydro-2H-pyran-3-yl}sulfanyl)-2-methylphenyl]-4-(trifluoromethyl)benzene-1-sulfonamide], the IC50 in test [3] came to 12.3 nM; in test [2] (pH 6.2, 37 °C), 12.3 nM.
In the case of `Cc1cc(SC2C(=O)CC(CCc3ccc(O)cc3)(C(C)C)OC2=O)c(C(C)(C)C)cc1N` (centres undefined), the Ki in test [1] is 0.67 nM; in test [2] (pH 6.2, 37 °C), 0.67 nM. The IC50 in test [3] amounted to 2.7 nM; in test [2] (pH 6.2, 37 °C) it was 2.7 nM.
As to `Cc1cc(SC2C(=O)CC(CCc3ccc(O)cc3)(C3CCCCC3)OC2=O)c(C(C)(C)C)cc1OS(=O)(=O)c1ccccc1` (centres undefined) [5-tert-butyl-4-({6-cyclohexyl-4-hydroxy-6-[2-(4-hydroxyphenyl)ethyl]-2-oxo-5,6-dihydro-2H-pyran-3-yl}sulfanyl)-2-methylphenyl benzenesulfonate], the figures for the 50% inhibitory concentration (IC50) in test [3] and in test [2] were 131 nM and 130 nM, respectively.

One may read the Ki as a dissociation constant, usually derived from enzyme kinetics or from competition with a known ligand. A higher Ki goes with lower affinity. One may read the IC50 as the point on the concentration scale where inhibition reaches its midpoint. Low values mean greater potency, high ones weaker potency.
